# Test results: PubChem BioAssay (NCI)
#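 Results reflect a 48-hour exposure of cells in 96-well plates to compound at five concentrations. TGI denotes the concentration required for complete inhibition of growth.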
# Assays:
# Assay in all cases: growth of human tumour cells (NCI), 48 h
# [1] = tested on: A549 NSCLC
# [2] = tested on: ACHN renal
# [3] = tested on: CCRF-CEM leukemia
# [4] = tested on: HS 578T breast
# [5] = tested on: HT29 colon
# [6] = tested on: K-562 leukemia
# [7] = tested on: MDA-MB-231 breast
# [8] = tested on: NCI-H23 lung
# [9] = tested on: OVCAR-4 ovarian
# [10] = tested on: OVCAR-8 ovarian
# [11] = tested on: SF-295 CNS
# [12] = tested on: SF-539 CNS
# [13] = tested on: SK-MEL-28 melanoma
# [14] = tested on: SK-MEL-5 melanoma
# [15] = tested on: SN12C renal
# [16] = tested on: SNB-75 CNS
# [17] = tested on: T-47D breast
# [18] = tested on: U251 CNS
# [19] = tested on: UACC-62 melanoma
# [20] = tested on: SR leukemia
SMILES,TGI [1],TGI [2],TGI [3],TGI [4],TGI [5],TGI [6],TGI [7],TGI [8],TGI [9],TGI [10],TGI [11],TGI [12],TGI [13],TGI [14],TGI [15],TGI [16],TGI [17],TGI [18],TGI [19],TGI [20]
Cc1ccc(C)c2c1CC(Cc1ccccc1C(=O)O)C2=O (stereo not given),> 100 µM,> 100 µM,> 100 µM,> 100 µM,> 100 µM,> 100 µM,> 100 µM,> 100 µM,> 100 µM,> 100 µM,> 100 µM,> 100 µM,> 100 µM,> 100 µM,> 100 µM,> 100 µM,> 100 µM,> 100 µM,> 100 µM,–
CNC(=O)CN(C)C(=O)CCC(=O)N(C)C,> 100 µM,> 100 µM,> 100 µM,> 100 µM,> 100 µM,> 100 µM,> 100 µM,> 100 µM,–,> 100 µM,> 100 µM,> 100 µM,> 100 µM,> 100 µM,> 100 µM,> 100 µM,> 100 µM,> 100 µM,> 100 µM,–
Cc1ccc(C(=O)OCC(C)C)cc1N=NN(C)C,> 100 µM,> 100 µM,> 100 µM,> 100 µM,> 100 µM,> 100 µM,> 100 µM,> 100 µM,> 100 µM,> 100 µM,> 87.5 µM,> 100 µM,> 100 µM,> 100 µM,> 100 µM,–,> 100 µM,> 100 µM,> 100 µM,> 100 µM
Cc1ccc2c(=O)cc(-c3ccsc3)[nH]c2n1,> 44.7 µM,> 100 µM,> 83 µM,26.2 µM,> 100 µM,> 100 µM,> 87.6 µM,> 25.2 µM,> 100 µM,> 100 µM,23.6 µM,33.2 µM,> 100 µM,> 28.5 µM,> 86.2 µM,35 µM,> 74.9 µM,> 55.2 µM,> 100 µM,–
O=C(O)[C@@H]1NC[C@H]2C(Br)=NO[C@H]21,> 100 µM,> 100 µM,> 100 µM,> 100 µM,> 100 µM,–,> 100 µM,> 100 µM,> 100 µM,> 100 µM,> 100 µM,–,> 100 µM,> 100 µM,> 100 µM,> 100 µM,> 100 µM,> 100 µM,> 100 µM,> 100 µM
C#CCCCOc1ncccn1,> 100 µM,> 100 µM,–,> 100 µM,> 100 µM,> 100 µM,> 100 µM,> 100 µM,> 100 µM,> 100 µM,> 100 µM,> 100 µM,> 100 µM,> 100 µM,> 100 µM,–,> 100 µM,> 100 µM,> 100 µM,> 100 µM
CC(=O)N1CC(=O)N2C(=O)/C(=C/c3ccc(Cl)cc3)N=C12,> 100 µM,> 100 µM,> 100 µM,> 100 µM,> 100 µM,> 100 µM,> 100 µM,> 100 µM,> 100 µM,> 100 µM,> 100 µM,> 100 µM,> 100 µM,> 100 µM,> 100 µM,> 100 µM,> 100 µM,> 100 µM,> 100 µM,–
Cc1ccc2[nH]c3c(c2c1)C1CCC(C(C)(C)C)CC1C1C(=O)N(c2ccc4c(c2)OCO4)C(=O)C31 (stereo not given),6.38 µM,3.63 µM,3.81 µM,3.53 µM,16.2 µM,9.62 µM,5.11 µM,18.3 µM,3.62 µM,4.28 µM,9.85 µM,2.74 µM,17.9 µM,22.9 µM,4.96 µM,–,3.94 µM,4.77 µM,22.9 µM,3.73 µM
CC(=O)O[C@H]1CCC2[C@@H]3CCC4Cc5nc6c(nc5C[C@]4(C)C3CC[C@@]21C)CC1CC[C@@H]2C(CC[C@@]3(C)C2CC[C@@H]3C(C)CCCC(C)C)[C@@]1(C)C6 (stereo not given in full),> 100 µM,> 100 µM,> 100 µM,> 100 µM,> 100 µM,> 100 µM,> 100 µM,> 100 µM,> 100 µM,> 100 µM,> 100 µM,> 100 µM,> 100 µM,> 100 µM,> 100 µM,> 100 µM,> 100 µM,> 100 µM,> 100 µM,–
O=c1[nH]c(-n2[nH]c3c(c2=O)CCCC3)nc(O)c1-c1ccccc1,–,> 100 µM,> 100 µM,> 100 µM,> 100 µM,> 100 µM,> 100 µM,> 100 µM,> 100 µM,> 100 µM,> 100 µM,–,> 100 µM,> 100 µM,> 100 µM,–,> 100 µM,> 100 µM,> 100 µM,> 100 µM
